Measurements reported in ChEMBL document CHEMBL5352396, “Synthesis and biological evaluation of novel FiVe1 derivatives as potent and selective agents for the treatment of mesenchymal cancers” (Eur J Med Chem, 2022).
Activity calls are given as the source filed them. The calls are words filed in the database; no cut-off is given here.

What was measured:
[1] = AUC (0 to infinity) in mouse at 25 mg/kg, po by LC-MS/MS analysis; type: ADME, organism-based; set-up: dose 25 mg/kg, route po; conditions: in vivo
HT-1080 = assay: cells; conditions: Homo sapiens, HT-1080, 72 h
Vimentin (Homo sapiens) [2] = target: Vimentin (Homo sapiens) (UniProt P08670); assay: Induction of Vimentin phosphorylation in human RD cells at 1 uM incubated for 24 hrs by Western blot analysis; type: cell-based; conditions: filed as activator
[3] = Metabolic stability in CD-1 mouse liver microsomes assessed as half life at 100 uM measured upto 60 mins in presence of NADPH by LC-MS/MS analysis; type: ADME, Microsome; conditions: mouse, microsomes, 1 h, 100 µM
[4] = Cmax in mouse at 25 mg/kg, po by LC-MS/MS analysis; type: ADME, organism-based; set-up: dose 25 mg/kg, route po; conditions: in vivo
[5] = Drug metabolism in mouse hepatocytes assessed as dealkylation and oxygenation by measuring M2 metabolite formation; type: ADME, cell-based, Hepatocyte
Vimentin (Homo sapiens) [6] = target: Vimentin (Homo sapiens) (UniProt P08670); assay: Induction of Vimentin phosphorylation in human HT-1080 cells at 1 uM incubated for 24 hrs by Western blot analysis; type: cell-based; conditions: filed as activator
[7] = Drug metabolism in mouse hepatocytes assessed as dealkylation by measuring M4 metabolite formation; type: ADME, cell-based, Hepatocyte
Vimentin (Homo sapiens) [8] = target: Vimentin (Homo sapiens) (UniProt P08670); assay: Induction of Vimentin phosphorylation in human RD cells at 100 nM incubated for 24 hrs by Western blot analysis; type: cell-based
[9] = Tmax in mouse at 25 mg/kg, po by LC-MS/MS analysis; type: ADME, organism-based; conditions: in vivo
RD = assay: cells; conditions: Homo sapiens, 72 h
MCF7 = assay: cells; conditions: Homo sapiens, MCF7, 72 h
[10] = Metabolic stability in CD-1 mouse liver microsomes assessed as parent compound remaining at 100 uM measured after 60 mins in presence of NADPH by LC-MS/MS analysis; type: ADME, Microsome; conditions: read-out: Stability
GCT = assay: cells; conditions: Homo sapiens, 72 h
[11] = Drug metabolism in mouse hepatocytes assessed as oxygenation by measuring M6 metabolite formation; type: ADME, cell-based, Hepatocyte
[12] = Drug metabolism in mouse hepatocytes assessed as oxygenation by measuring M5 metabolite formation; type: ADME, cell-based, Hepatocyte
[13] = Metabolic stability in CD-1 mouse liver microsomes assessed as intrinsic clearance at 100 uM measured upto 60 mins in presence of NADPH by LC-MS/MS analysis; type: ADME, Microsome; conditions: mouse, microsomes, 1 h, 100 µM
[14] = Kinetic solubility of the compound in DPBS buffer at pH 7.4 incubated for 16 hrs under shaking condition by HPLC analysis; type: physicochemical; conditions: read-out: Kinetic_solubility
Vimentin (Homo sapiens) [15] = target: Vimentin (Homo sapiens) (UniProt P08670); assay: Induction of Vimentin phosphorylation in human GCT cells at 1 uM incubated for 24 hrs by Western blot analysis; type: cell-based; conditions: filed as activator
[16] = Half life in mouse at 25 mg/kg, po by LC-MS/MS analysis; type: ADME, organism-based; conditions: in vivo
Vimentin (Homo sapiens) [17] = target: Vimentin (Homo sapiens) (UniProt P08670); assay: Induction of Vimentin phosphorylation in human GCT cells at 100 nM incubated for 24 hrs by Western blot analysis; type: cell-based
Vimentin (Homo sapiens) [18] = target: Vimentin (Homo sapiens) (UniProt P08670); assay: Induction of Vimentin phosphorylation in human HT-1080 cells at 100 nM incubated for 24 hrs by Western blot analysis; type: cell-based
[19] = Drug metabolism in mouse hepatocytes assessed as dealkylation by measuring M3 metabolite formation; type: ADME, cell-based, Hepatocyte
[20] = AUC (0 to last) in mouse at 25 mg/kg, po by LC-MS/MS analysis; type: ADME, organism-based; set-up: dose 25 mg/kg, route po; conditions: in vivo
[21] = Drug metabolism in mouse hepatocytes assessed as oxygenation by measuring M7 metabolite formation; type: ADME, cell-based, Hepatocyte
[22] = Drug metabolism in mouse hepatocytes assessed as dealkylation by measuring M1 metabolite formation; type: ADME, cell-based, Hepatocyte

Chain of Vimentin (Homo sapiens) (P08670 whole entry): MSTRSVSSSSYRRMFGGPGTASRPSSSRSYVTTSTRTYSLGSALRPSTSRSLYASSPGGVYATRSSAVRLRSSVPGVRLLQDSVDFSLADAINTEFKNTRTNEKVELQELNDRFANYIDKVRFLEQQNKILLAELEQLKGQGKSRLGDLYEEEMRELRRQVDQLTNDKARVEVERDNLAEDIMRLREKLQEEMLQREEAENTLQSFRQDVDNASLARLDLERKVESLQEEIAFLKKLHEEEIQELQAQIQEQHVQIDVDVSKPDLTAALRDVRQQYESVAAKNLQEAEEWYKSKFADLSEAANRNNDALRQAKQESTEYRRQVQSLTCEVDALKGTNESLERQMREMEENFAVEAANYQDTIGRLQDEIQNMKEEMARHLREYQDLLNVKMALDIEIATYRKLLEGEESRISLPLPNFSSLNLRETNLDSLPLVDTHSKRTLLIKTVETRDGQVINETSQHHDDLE

AUC(0-inf) [1]: 339 ng·h/mL | IC50 (HT-1080): 1.56 µM | Activity (Vimentin (Homo sapiens) [2]): Active | t1/2 [3]: 11.9 min | Cmax [4]: 110 ng/mL | Drug metabolism [5]: Metabolite_Detected | Activity (Vimentin (Homo sapiens) [6]): Active | Drug metabolism [7]: Metabolite_Detected | Activity (Vimentin (Homo sapiens) [8]): inactive | Tmax [9]: 30 min | IC50 (RD): 3.1 µM | IC50 (MCF7): > 20 µM | remaining at 1 h, 100 µM [10]: 3.2% | IC50 (GCT): 1.69 µM | Drug metabolism [11]: Metabolite_Detected | Drug metabolism [12]: Metabolite_Detected | microsomal intrinsic clearance [13]: 116.1 µL/min/mg | solubility kinetic at 16 h [14]: < 1 µM | Activity (Vimentin (Homo sapiens) [15]): Active | half-life [16]: 274 min | Activity (Vimentin (Homo sapiens) [17]): inactive | Activity (Vimentin (Homo sapiens) [18]): inactive | Drug metabolism [19]: Metabolite_Detected | AUC(0-t) [20]: 310 ng·h/mL | Drug metabolism [21]: Metabolite_Detected | Drug metabolism [22]: Metabolite_Detected
Compound: Clc1cccc(N2CCN(c3cnnc4c(Cl)cccc34)CC2)c1
